The results in this text go back to PubChem BioAssay AID1963421 (Molecular Pharmacology Branch, DTP, NCI, 2024).

This experiment has as its system 519858-162-T-J1-PDC complex spheroid growth, % test/control. The experiment can be described thus: Anticancer human tumor 519858-162-T-J1-PDC patient-derived colon adenocarcinoma cell line growth inhibition [Asc]. The conditions noted are these: for viability, T/C: stronger effect = lower value. The method, boiled down: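 Complex solid-tumor spheroids incorporating human endothelial and mesenchymal stem cells received single agents or combinations over half-log dilution ranges anchored to clinical Cmax.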

As a reminder, the IC50 is the concentration that gives 50% inhibition. As a reminder, the viability, T/C is the result in the treated group divided by that in the control group, in per cent.
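Also: seven day drug exposure begun three days after spheroid seeding.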
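For viability, T/C in this document: 100% = DMSO vehicle wells and lower values mean less viable spheroid.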

Take `O=C(c1ccc(F)c(F)c1Nc1ccc(I)cc1F)N1CC(O)([C@@H]2CCCCN2)C1` + CCN1C(C(=O)NC23CCC(C(=O)O)(CC2)CC3)C(c2cccc(Cl)c2F)C2(C(=O)Nc3cc(Cl)ccc32)C12CCCCC2: the concentration for half-maximal inhibition (IC50) stood at 213 nM (curve of first compound, second compound 0.00949 µM); 130 nM (curve of first compound, second compound 0.03 µM); 211 nM (curve of first compound, second compound 0.0949 µM); 250 nM (curve of first compound, second compound 0.3 µM); 246 nM (curve of first compound, second compound 0.949 µM); 167 nM (curve of first compound, second compound 3 µM). In addition, the viability, T/C is, setting by setting: (second compound 0.00949 µM, first compound 0.00316 µM) 57.3%; (second compound 0.00949 µM, first compound 0.01 µM) 86.8%; (second compound 0.00949 µM, first compound 0.0316 µM) 88.8%; (second compound 0.00949 µM, first compound 0.1 µM) 116%; (second compound 0.00949 µM, first compound 0.316 µM) 30.6%; (second compound 0.00949 µM, first compound 1 µM) 19.1%. Further, the viability, T/C was 126% (second compound 0.03 µM, first compound 0.00316 µM); 91.1% (second compound 0.03 µM, first compound 0.01 µM); 93.1% (second compound 0.03 µM, first compound 0.0316 µM); 56% (second compound 0.03 µM, first compound 0.1 µM); 42.5% (second compound 0.03 µM, first compound 0.316 µM); 17.6% (second compound 0.03 µM, first compound 1 µM). The viability, T/C is 105% (second compound 0.0949 µM, first compound 0.00316 µM); 115% (second compound 0.0949 µM, first compound 0.01 µM); 64.8% (second compound 0.0949 µM, first compound 0.0316 µM); 79.9% (second compound 0.0949 µM, first compound 0.1 µM); 36.1% (second compound 0.0949 µM, first compound 0.316 µM); 15.5% (second compound 0.0949 µM, first compound 1 µM). For the same compound, the viability, T/C is, setting by setting: (second compound 0.3 µM, first compound 0.00316 µM) 90.5%; (second compound 0.3 µM, first compound 0.01 µM) 90%; (second compound 0.3 µM, first compound 0.0316 µM) 66.1%; (second compound 0.3 µM, first compound 0.1 µM) 91.8%; (second compound 0.3 µM, first compound 0.316 µM) 41.1%; (second compound 0.3 µM, first compound 1 µM) 17.2%. The viability, T/C (second compound 0.949 µM, first compound 0.00316 µM) was 81%; the viability, T/C (second compound 0.949 µM, first compound 0.01 µM) was 64%; the viability, T/C (second compound 0.949 µM, first compound 0.0316 µM) was 73%; the viability, T/C (second compound 0.949 µM, first compound 0.1 µM) was 70.1%; the viability, T/C (second compound 0.949 µM, first compound 0.316 µM) is 44.3%; the viability, T/C (second compound 0.949 µM, first compound 1 µM) was 21.9%. The viability, T/C by setting is: (second compound 3 µM, first compound 0.00316 µM) 68.4%; (second compound 3 µM, first compound 0.01 µM) 104%; (second compound 3 µM, first compound 0.0316 µM) 46.3%; (second compound 3 µM, first compound 0.1 µM) 65.7%; (second compound 3 µM, first compound 0.316 µM) 39.5%; (second compound 3 µM, first compound 1 µM) 14.3%.

`Cc1c(S(C)(=O)=O)c(-c2cc(F)cc(N3CCN(c4ccc(NS(=O)(=O)c5ccc(NC(CCN6CCC(C(=O)OCCCP(=O)(O)O)CC6)CSc6ccccc6)c(S(=O)(=O)C(F)(F)F)c5)cc4)CC3)c2)c(-c2ccc(Cl)cc2)n1C(C)C` (stereo not given): the viability, T/C is 89.8% [middle of 7 runs] (compound 0.0316 µM) and 95.1% [middle of 7 runs] (compound 1 µM). For the same compound, the half-maximal inhibitory concentration (IC50) (compound alone, run of 11/07/2022) is greater than 10000 nM.
